Reference: publication PMC2714806 (2009)
Values joined by “and” are separate entries in the source; they are usually repeats but may differ in a detail not shown here. Identical values can stand only once. “Also recorded” adds a separate entry of the source. Ends that are not written are not given here.

Legend:
NMDA receptor = conditions: cited from earlier work
[1] = test system: NR1a/NR2A-, NR1a/NR2B-, NR1b/NR2A-, and NR1b/NR2B-containing receptors; conditions: cited from earlier work
[2] = format: physicochemical; conditions: pH 6.5
[3] = format: physicochemical; conditions: pH 6.5; remark: listed apart in the source
[4] = format: binding; conditions: pH 6.5
[5] = format: binding; conditions: pH 6.5; remark: listed apart in the source
NR1b/2A NMDA receptor = format: cell-based; conditions: pH 7.35
NR1b/2B NMDA receptor = format: cell-based; conditions: pH 7.35
[6] = test system: NR1b/2A and NR1b/2B NMDA receptors; format: cell-based; conditions: 40 µM

## GEγγYQγMLγNLRγAEVKKNA-NH2 [con-T[K7γ]]
NMDA receptor
  inhibition of ion flow through NMDA receptor complexes: potent and specific inhibitors

## con-T: naturally-occurring conantokin derived from Conus tulipa (GEEEYQKMLENLREAEVKKNA; ends and bridges not checked; UniProt P17684 1-21, looked up)
[1]; 40 µM
  antagonism of NMDA receptor activity: completely antagonizes NMDA receptor activity at all subunit combinations
NMDA receptor
  inhibition of current flow through the NMDA receptor: potent and selective inhibitor of current flow through the NMDA receptor

## con-T[M8N]: Met8-substituted con-T peptide (GEEEYQKNLENLREAEVKKNA; ends and bridges not checked; UniProt P17684 1-21, looked up, variant M8N)
[1]
  NR2A-/NR2B-selectivity: non-selective

## con-T[γ4E,K7γ,V17γ] [con-T-tri]
[2]
  helicity (in words): marginal helicity; also recorded: high percentage of helix content; also recorded: negligible helicity; also recorded: highly helical character
[3]
  MWapp (apparent molecular weight): 3320 ± 300 and 6490 ± 450 and 3460 ± 190
  self-association: did not result in marked self-association
[4]
  Kd: 26 µM
[5]
  n (stoichiometry of metal ion binding): 1.0
NR1b/2A NMDA receptor
  effect on NMDA-evoked current: current potentiation; also recorded: Potentiation of currents
NR1b/2B NMDA receptor
  effect on NMDA-evoked current: modest inhibitory activity
[6]
  NR2A-/NR2B-selectivity: NR2B selective
